The source of these data is publication PMC5566576, “Identification and Functional Characterization of Small Alarmone Synthetases in Corynebacterium glutamicum” (Frontiers in Microbiology, 2017).

As usually defined, the Km is the substrate concentration at which the rate is half of its maximum.

Data set [1] has as its target T1, RelCg (Corynebacterium glutamicum, UniProt O87331).
T1 construct: gene relA
T1 sequence (O87331 1-760): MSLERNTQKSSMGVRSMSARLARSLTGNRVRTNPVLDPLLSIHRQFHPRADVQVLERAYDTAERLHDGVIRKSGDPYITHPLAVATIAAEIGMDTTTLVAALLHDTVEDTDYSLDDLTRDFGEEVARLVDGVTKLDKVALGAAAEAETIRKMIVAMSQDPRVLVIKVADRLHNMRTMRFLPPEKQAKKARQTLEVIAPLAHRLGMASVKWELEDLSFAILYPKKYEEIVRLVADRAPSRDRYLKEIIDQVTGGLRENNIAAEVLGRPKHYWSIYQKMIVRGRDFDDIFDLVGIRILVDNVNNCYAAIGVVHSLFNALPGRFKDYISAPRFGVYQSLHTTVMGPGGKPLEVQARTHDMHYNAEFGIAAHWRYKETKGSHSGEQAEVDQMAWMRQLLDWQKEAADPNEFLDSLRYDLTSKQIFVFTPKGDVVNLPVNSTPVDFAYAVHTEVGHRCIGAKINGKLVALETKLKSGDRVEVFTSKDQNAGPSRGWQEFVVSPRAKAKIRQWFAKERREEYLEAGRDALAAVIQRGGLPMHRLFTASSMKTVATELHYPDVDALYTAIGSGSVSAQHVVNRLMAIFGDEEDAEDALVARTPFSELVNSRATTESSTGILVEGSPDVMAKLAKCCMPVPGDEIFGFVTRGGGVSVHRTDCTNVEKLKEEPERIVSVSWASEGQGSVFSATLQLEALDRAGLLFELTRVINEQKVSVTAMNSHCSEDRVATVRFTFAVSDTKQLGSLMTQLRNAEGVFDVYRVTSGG
Kind of data set: pyrophosphokinase assay, HPLC-MS product detection (ppGpp). It is filed as biochemical. The conditions noted are these: 4 mM ATP, 4 mM GDP, 50 mM Tris-HCl pH 8.0, 5 mM MgCl2, 30°C, 4 h; GDP also phosphorylated to GTP.

Data set [2] addresses T2, RelP*Cg (Corynebacterium glutamicum, UniProt Q8NR76).
T2 construct: gene Cgl1177
The data set is described as follows: kinase activity, HPLC-MS product detection (ADP and GTP). It is filed as biochemical. As to conditions: 4 mM ATP, 4 mM GDP, 50 mM Tris-HCl pH 8.0, 5 mM MgCl2, 30°C, 4 h; no pyrophosphokinase activity.

Data set [3] addresses T2, RelP*Cg. The data set is described as follows: phosphohydrolase activity, HPLC-MS product detection (ADP and GDP). The format is biochemical. The conditions noted are these: 4 mM ATP, 4 mM GTP, 50 mM Tris-HCl pH 8.0, 5 mM MgCl2, 30°C, 4 h; no alarmone formed.
Data set [4] concerns the target T1, RelCg. The data set is described as follows: pyrophosphokinase assay, HPLC-MS product detection (pppGpp). The conditions noted are these: 4 mM ATP, 4 mM GTP, 50 mM Tris-HCl pH 8.0, 5 mM MgCl2, 30°C, 4 h. It is filed as biochemical.
Substrate in data set [5]: Nc1nc2c(ncn2[C@@H]2O[C@H](COP(=O)(O)OP(=O)(O)OP(=O)(O)O)[C@@H](O)[C@H]2O)c(=O)[nH]1
Kind of data set: pyrophosphokinase assay, HPLC-MS quantification of AMP, polynomial fit. The format is biochemical, Corynebacterium glutamicum. The conditions noted are these: 25 mM ATP, 50 mM HEPES-Na pH 7.0, 200 mM NaCl, 5 mM MgCl2, 30°C, 60 min, 250 nM enzyme, substrate excess inhibition at 25-50 mM.

Substrate in data set [6]: Nc1nc2c(ncn2[C@@H]2O[C@H](COP(=O)(O)OP(=O)(O)O)[C@@H](O)[C@H]2O)c(=O)[nH]1
The data set is described as above. The conditions noted are these: 25 mM ATP, 50 mM HEPES-Na pH 7.0, 200 mM NaCl, 5 mM MgCl2, 30°C, 60 min, 250 nM enzyme, substrate excess inhibition at 25-50 mM. It is filed as biochemical, Corynebacterium glutamicum.

Substrate in data set [7]: Nc1ncnc2c1ncn2[C@@H]1O[C@H](COP(=O)(O)OP(=O)(O)OP(=O)(O)O)[C@@H](O)[C@H]1O
The data set is described as follows: pyrophosphokinase assay, HPLC-MS quantification of AMP; half-maximal specific activity. The format is biochemical, Corynebacterium glutamicum. The conditions noted are these: 25 mM GTP, 50 mM HEPES-Na pH 7.0, 200 mM NaCl, 5 mM MgCl2, 30°C, 60 min, 250 nM enzyme.

T2 sequence (Q8NR76 entry or part of it): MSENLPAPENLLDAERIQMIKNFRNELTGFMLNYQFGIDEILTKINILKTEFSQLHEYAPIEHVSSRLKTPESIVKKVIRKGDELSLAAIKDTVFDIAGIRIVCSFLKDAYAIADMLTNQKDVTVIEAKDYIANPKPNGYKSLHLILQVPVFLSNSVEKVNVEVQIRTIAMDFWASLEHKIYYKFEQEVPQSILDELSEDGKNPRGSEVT

`Nc1nc2c(ncn2[C@@H]2O[C@H](COP(=O)(O)OP(=O)(O)O)[C@@H](O)[C@H]2O)c(=O)[nH]1` [GDP]: the “pyrophosphokinase assay, HPLC-MS product detection (ppGpp)” value in data set [1] was “pyrophosphorylation of GDP and GTP to ppGpp and pppGpp was detected”. In addition, the “kinase activity, HPLC-MS product detection (ADP and GTP)” value in data set [2] was “RelP^*Cg possesses a kinase activity, since ADP and GTP were produced”.
As to `Nc1nc2c(ncn2[C@@H]2O[C@H](COP(=O)(O)OP(=O)(O)OP(=O)(O)O)[C@@H](O)[C@H]2O)c(=O)[nH]1` [GTP], in data set [3], the “phosphohydrolase activity, HPLC-MS product detection (ADP and GDP)” value was “containing RelP^*Cg as well as ATP and GTP as substrates, significant amounts of ADP and GDP”. In data set [4], the “pyrophosphokinase assay, HPLC-MS product detection (pppGpp)” value is “pyrophosphorylation of GDP and GTP to ppGpp and pppGpp was detected”.

B1: RelSCg (Corynebacterium glutamicum ATCC 13032) (protein)
chain: MSDNTLSQFGSYYHEFRRAHPMADVEFLLAIEELLTDGGVTFDRVTTRIKEWSSLKAKARKRRNDGSLIYPDPRKDIHDMIGVRITTYHSTEIPVALKVLQDSFIVHKSVDKAAETRISGGFGYGSHHLILEVDDTSDDLQDYKGLVFEVQVRTVLQHAWAEFEHDIRYKRADVSNPEDFSAEVDRMFTLAAGLIELADQQFDQIAALKETSRVADESVELTAETLPGVLAMLIGNRFPRPRSTNYRFLEDILVANSITSVVQLRELLNPTDIEVLLKVMNYRFHPGQIRIIDDLLLKRFGQSHIDATVATDSQPLNAKRHRQLKRKLELMTQAHLVEPPN
On to B1, for which the Km in data set [5] was determined as 4.1 mM; in data set [6], 6.1 mM. The K0.5 in data set [7] stood at 0.8 mM.
